Key:
[1] = target: T1, Estrogen Receptor β (Homo sapiens, UniProt Q92731); experiment: Target selectivity counterscreen, Estrogen Receptor β reporter assay; assay type: cell-based; settings: receptor agonist at ~EC80
T1 construct: host or cells: engineered reporter cells of the kit
Procedure: (§1) Target Selectivity Assays
(§2) To determine species selectivity, a Mouse PPARα Reporter Assay System was used (Indigo Biosciences, Cat. #M00111). Activity of test compounds to antagonize or agonize other isoforms of human PPAR, for example β/δ and γ, were assessed using the corresponding kits from Indigo Biosciences (Cat. #IB00121 and #IB00101, respectively). In addition to PPAR activity, compounds were also screened for activity against other nuclear hormone receptors including Estrogen Receptor β, Glucocorticoid Receptor and Thyroid Receptor β using commercially available kits (Indigo Biosciences, Cat. #IB00411, IB00201 and IB01101, respectively). Each assay system from Indigo Biosciences uses technology analogous to the human PPARα kit, with the variance being that the cells used for each assay were engineered to over-express the receptor of interest. In addition, the appropriate receptor agonist (included with each kit) was used at ˜EC80 for assays in which antagonist potency was being assessed.

[2] = target: T2, Glucocorticoid Receptor (Homo sapiens, UniProt P04150); experiment: Target selectivity counterscreen, Glucocorticoid Receptor reporter assay; assay type: cell-based; settings: receptor agonist at ~EC80
T2 construct: host or cells: engineered reporter cells of the kit
T2 sequence (P04150 1-777): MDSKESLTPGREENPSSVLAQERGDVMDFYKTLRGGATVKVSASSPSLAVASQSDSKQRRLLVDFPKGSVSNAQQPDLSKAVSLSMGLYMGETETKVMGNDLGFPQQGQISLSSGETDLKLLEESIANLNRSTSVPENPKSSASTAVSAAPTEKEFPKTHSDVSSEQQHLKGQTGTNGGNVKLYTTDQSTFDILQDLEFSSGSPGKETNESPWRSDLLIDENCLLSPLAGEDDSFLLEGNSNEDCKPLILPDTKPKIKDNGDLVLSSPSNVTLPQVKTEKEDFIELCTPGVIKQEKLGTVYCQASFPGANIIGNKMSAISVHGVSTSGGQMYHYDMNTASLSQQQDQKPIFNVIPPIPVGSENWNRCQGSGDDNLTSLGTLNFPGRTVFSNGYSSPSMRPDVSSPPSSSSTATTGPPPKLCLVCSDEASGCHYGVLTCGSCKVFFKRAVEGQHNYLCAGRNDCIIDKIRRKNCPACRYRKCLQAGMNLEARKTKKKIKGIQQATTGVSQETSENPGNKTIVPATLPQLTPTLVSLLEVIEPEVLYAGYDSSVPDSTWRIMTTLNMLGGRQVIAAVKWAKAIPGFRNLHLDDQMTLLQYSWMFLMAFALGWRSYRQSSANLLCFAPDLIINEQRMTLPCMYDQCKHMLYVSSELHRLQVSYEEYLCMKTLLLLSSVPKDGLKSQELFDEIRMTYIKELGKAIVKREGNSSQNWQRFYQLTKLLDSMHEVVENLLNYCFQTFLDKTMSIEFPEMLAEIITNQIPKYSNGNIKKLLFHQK
Procedure: as §1, §2

[3] = target: T3, Thyroid Receptor β (Homo sapiens, UniProt P10828); experiment: Target selectivity counterscreen, Thyroid Receptor β reporter assay; assay type: cell-based; settings: receptor agonist at ~EC80
T3 construct: host or cells: engineered reporter cells of the kit
T3 sequence (P10828 1-461): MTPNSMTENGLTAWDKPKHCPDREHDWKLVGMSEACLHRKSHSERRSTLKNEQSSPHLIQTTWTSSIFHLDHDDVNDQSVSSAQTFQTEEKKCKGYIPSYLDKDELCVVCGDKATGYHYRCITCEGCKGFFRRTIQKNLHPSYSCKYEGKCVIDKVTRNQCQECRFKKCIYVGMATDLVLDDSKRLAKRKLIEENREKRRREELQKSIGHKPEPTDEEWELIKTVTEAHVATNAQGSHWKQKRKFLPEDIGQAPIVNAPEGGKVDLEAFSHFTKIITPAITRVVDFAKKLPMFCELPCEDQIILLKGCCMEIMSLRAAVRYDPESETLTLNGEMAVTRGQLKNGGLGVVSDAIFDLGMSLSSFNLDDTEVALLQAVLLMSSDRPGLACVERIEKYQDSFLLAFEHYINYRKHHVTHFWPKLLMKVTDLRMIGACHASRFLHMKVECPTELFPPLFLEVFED
Procedure: as §1, §2

[4] = target: T4, PPAR beta/delta (Homo sapiens, UniProt Q03181); experiment: Target selectivity counterscreen, PPAR β/δ reporter assay; assay type: cell-based; settings: receptor agonist at ~EC80
T4 construct: host or cells: engineered reporter cells of the kit (analogous to the human PPARα kit)
T4 sequence (Q03181 1-441): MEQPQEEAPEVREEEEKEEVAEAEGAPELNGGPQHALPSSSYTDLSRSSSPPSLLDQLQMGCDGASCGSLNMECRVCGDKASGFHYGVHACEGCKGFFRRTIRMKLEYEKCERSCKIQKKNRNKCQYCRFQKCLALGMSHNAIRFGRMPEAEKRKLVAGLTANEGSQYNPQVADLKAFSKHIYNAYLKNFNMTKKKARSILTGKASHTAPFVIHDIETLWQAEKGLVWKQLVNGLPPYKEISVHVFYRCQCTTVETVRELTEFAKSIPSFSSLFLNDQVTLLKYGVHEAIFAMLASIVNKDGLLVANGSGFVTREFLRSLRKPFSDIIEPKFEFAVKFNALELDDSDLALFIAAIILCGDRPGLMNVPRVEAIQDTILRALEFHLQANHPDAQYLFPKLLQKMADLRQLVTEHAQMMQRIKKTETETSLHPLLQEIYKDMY
Procedure: as §1, §2

[5] = system: B16F10 melanoma cells; experiment: In vivo cancer model: B16F10 model of pulmonary metastasis; parameters: species or system C57BL/6 mice; settings: oral doses 0.3, 3 and 30 mg/kg daily, day 21, FIG. 1
Procedure: In Vivo Cancer Model: B16F10 Model of Pulmonary Metastasis
B16F10 cells were cultured in standard growth media, harvested when approximately 50% confluent and injected into C57BL/6 mice via the tail vein (50,000 cells per mouse in 200 μL). Mice were treated daily with test compound. On day 21, mice were euthanized. Lungs were harvested and placed into Fekete's solution overnight to facilitate visualization of the tumors. Black nodules were enumerated.
Statistics were performed by ANOVA with Dunnett's Multiple Comparison Test post-hoc to determine statistical differences from vehicle treatment group. * denotes P<0.05, while *** denotes P<0.001.

T1 sequence (Q92731 whole entry): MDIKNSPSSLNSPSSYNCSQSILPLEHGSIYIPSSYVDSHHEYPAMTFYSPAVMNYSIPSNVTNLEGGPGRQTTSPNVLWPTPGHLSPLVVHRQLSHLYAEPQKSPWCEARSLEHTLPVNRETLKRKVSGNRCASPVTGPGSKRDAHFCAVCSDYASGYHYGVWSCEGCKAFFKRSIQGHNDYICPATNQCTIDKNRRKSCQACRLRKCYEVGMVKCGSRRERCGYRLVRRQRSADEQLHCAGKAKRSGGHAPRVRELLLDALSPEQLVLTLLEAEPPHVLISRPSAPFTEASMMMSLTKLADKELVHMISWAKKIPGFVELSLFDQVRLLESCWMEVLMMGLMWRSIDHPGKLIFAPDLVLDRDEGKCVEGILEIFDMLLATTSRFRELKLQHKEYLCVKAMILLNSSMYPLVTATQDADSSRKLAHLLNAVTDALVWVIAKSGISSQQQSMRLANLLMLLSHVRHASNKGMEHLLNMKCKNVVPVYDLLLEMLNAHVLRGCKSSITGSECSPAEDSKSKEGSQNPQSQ

IC50 [1]: 19.4 µM
IC50 [2]: 18.2 µM
IC50 [3]: 30.8 µM
IC50 [4]: 13.3 µM
Structure (SMILES): CCOc1ccc(-c2cccc(CCCc3nn(Cc4ccc(C(C)(C)C)cc4)c(=O)n3CC)c2)cc1CC(=O)O [Example 6, 2-(3′-(3-(1-(4-(tert-Butyl)benzyl)-4-ethyl-5-oxo-4,5-dihydro-1H-1,2,4-triazol-3-yl)propyl)-4-ethoxy-[1,1′-biphenyl]-3-yl)acetic acid]
metastasis of B16F10 melanoma cells to the lung (black nodules enumerated) [5]: inhibition of metastasis
